Here are results for 8 molecules from patent publication US12344862B2, “Human intestinal epithelium model and method for preparing same” (KOREA RESEARCH INSTITUTE OF BIOSCIENCE AND BIOTECHNOLOGY, priority 2020, dated 2025).

One series deals with functional hIECs. Briefly: in vitro. The format is in vitro ADME, human. As to conditions: Caco-2. How it is done: (§1) The cells were prepared in the same manner as in Experimental Example 6.1. The functional hIECs and the Caco-2 cell line were washed 3 times with a transport buffer. […] The concentration of each compound in the sample was analyzed using LC-MS/MS. The apparent permeability coefficient was calculated according to the following equation. [formula] In the equation, dQ/dt, A, and C0 represent a transport rate, a surface area of the insert, and an initial concentration of the compound in the donor compartment, respectively. Chromatographic quantification of each compound was performed using an LC-tandem mass spectrometry system equipped with Shimadzu Prominence UPLC system (Shimadzu, Kyoto, Japan) and API 2000 QTRAP mass spectrometer (Applied Biosystems, Foster City, CA, USA). […] Then, an aliquot (10 μl) of the supernatant was injected directly into the LC-MS/MS system. Separation was performed using a Waters XTerra MS C18 column (2.1×50 mm, 5 μm, Milford, MA, USA) with a concentration gradient of 0.1% formic acid in acetonitrile and 0.1% formic acid in water at a flow rate of 0.4 ml/min. Transitions were made as follows to detect the analyte: […]

Another series can be described thus: in vitro. The series is classed as in vitro ADME, human. To be noted: human. How it is done: as §1
For the next series, the system named is Caco-2 cell line. Nature of the series: in vitro. The series is classed as in vitro ADME, human. How it is done:
as §1

The test system of series [1] is Wnt pathway and the Notch pathway. Nature of the series: qPCR of ATOH1, HES1, AXIN2, CTNNB1 during differentiation of hIEC progenitors into functional hIECs. As to conditions: 2 μM Wnt-059 and 1 mM valproic acid together in hIEC differentiation medium 2; functional vs immature hIECs; FIG. 7. The format is cell-based, human. An excerpt:
To identify effects of Wnt-059 and valproic acid, which belong to the components of the hIEC differentiation medium 2 in Example 2, on the Wnt pathway and the Notch pathway during differentiation of hIEC progenitors into functional hIECs, expression levels of ATOH1, HES1, AXN2, and CTNNB1 genes in human small intestine (hSI) tissue, immature hIECs, and functional hIECs were checked through qPCR analysis. Here, inactivation of the Wnt pathway and activation of the Notch pathway inhibited differentiation of ISCs into secretory cells. qPCR was performed in the same manner as in Experimental Example 1, and the primers used are shown in Table 3 below.
Background: Quantitative PCR measures a nucleic acid by following its amplification.

A further series concerns hPSCs. Briefly: qPCR of intestinal epithelial marker genes during differentiation of hPSCs into hIEC progenitors. As to conditions: component of hIEC differentiation medium 1; FIG. 2. The series is classed as cell-based, human. How it is done:
In Example 1, to identify effects, on differentiation of the hPSCs into the hIEC progenitors, of R-spondin 1, which is an agonist of Wnt signaling, and insulin in composition of the hIEC differentiation medium 1, expression levels of marker genes related to intestinal epithelial cells were checked through qPCR analysis. Specifically, total RNA and cDNA were prepared using RNeasy kit (Qiagen) and Superscript IV cDNA synthesis kit (Thermo Fisher Scientific Inc.), respectively. qPCR was performed using a 7500 Fast real-time PCR system (Applied Biosystems, Foster City, CA, USA).

One may read the Papp A→B as how fast a substance crosses the layer from the apical side. A high value points to fast passage.

On to `CC(C)NCC(O)COc1cccc2ccccc12` (centres unmarked) [propranolol], for which the “Fintestine (fraction absorbed in the human intestine) estimated from Papp” value in the series with functional hIECs was 0.78; with Caco-2 cell line it was 0.98. Moreover, the Papp A→B at 2 h in “in vitro” turned out to be 11 ± 1.28 ×10⁻⁶ cm/s; in “in vitro” (Caco-2), 32.3 ± 2.61 ×10⁻⁶ cm/s.
`Cc1cc(-c2ccc(CC(=O)Nc3ccc(-c4cccnc4)cc3)cc2)ccn1` [Wnt-059, Wnt C-59]: the “effect on Wnt pathway and Notch pathway (qPCR of ATOH1, AXIN2, CTNNB1, HES1)” value in series [1] is “inhibited the Wnt pathway and activated the Notch pathway”.
Take `CNC(=C[N+](=O)[O-])NCCSCc1ccc(CN(C)C)o1` [ranitidine]: the results for the Papp A→B at 2 h in the series “in vitro” and in the series “in vitro” (Caco-2) were 6.98 ± 0.66 ×10⁻⁶ cm/s and 0.98 ± 0.02 ×10⁻⁶ cm/s, respectively.
For the molecule “insulin: hormone secreted from beta cells of the islet of Langerhans; component of hIEC differentiation medium 1”, the “effect on expression of intestinal epithelial marker genes (qPCR)” value with hPSCs was “increased expression of VIL1 and ANPEP”.
As to `CCCC(CCC)C(=O)O` [valproic acid], in series [1], the “effect on Wnt pathway and Notch pathway (qPCR of ATOH1, AXIN2, CTNNB1, HES1)” value was “inhibited the Wnt pathway and activated the Notch pathway”.
Turning to `COCCc1ccc(OCC(O)CNC(C)C)cc1` (centres unmarked) [metoprolol], the apparent permeability from apical to basolateral (Papp A→B) at 2 h in “in vitro” was found to be 11.1 ± 1.15 ×10⁻⁶ cm/s; in the series “in vitro” (Caco-2) it was 36.5 ± 1.09 ×10⁻⁶ cm/s.
With `O=C(O)Cc1ccccc1Nc1c(Cl)cccc1Cl` [diclofenac], the Papp A→B at 2 h worked out at 9.82 ± 0.04 ×10⁻⁶ cm/s in the series “in vitro” and 36.2 ± 1.49 ×10⁻⁶ cm/s in “in vitro” (Caco-2).

B1: R-spondin 1: secreted protein encoded by Rspo1 gene, can promote Wnt/β catenin signals; agonist of Wnt signaling (protein, UniProt Q2MKA7 21-263, looked up)
R-spondin-1: SRGIKGKRQRRISAEGSQACAKGCELCSEVNGCLKCSPKLFILLERNDIRQVGVCLPSCPPGYFDARNPDMNKCIKCKIEHCEACFSHNFCTKCKEGLYLHKGRCYPACPEGSSAANGTMECSSPAQCEMSEWSPWGPCSKKQQLCGFRRGSEERTRRVLHAPVGDHAACSDTKETRRCTVRRVPCPEGQKRRKGGQGRRENANRNLARKESKEAGAGSRRRKGQQQQQQQGTVGPLTSAGPA
B1: the “effect on expression of intestinal epithelial marker genes (qPCR)” value with hPSCs is “increased expression of markers of major cell types in the intestinal epithelium”.
